Assay [1] has as its target T1, NS5B polymerase protein (Hepatitis C virus genotype 1a, UniProt P27958).
T1 construct: pre-incubated with the RNA template and NS5B polymerase protein; Replizyme
Put plainly: biochemical. The following applies: pre-incubated 37° C. 30 minutes; RdRp reaction 90 minutes at 37° C.; read-out: HCV NS5B inhibition EC50. The method, then:
The compounds were tested in the Replizyme HCV heterotemplate radioactive RNA-dependent RNA-polymerase (RdRp) assay. The test compounds were pre-incubated with the RNA template and NS5B polymerase protein at 37° C. for 30 minutes. The RdRp reaction was initiated with the addition of the NTPs to the buffer-NS5B-compound mix, and was allowed to proceed for 90 minutes at 37° C. Control reactions included: no enzyme, 5% DMSO (test compound solvent), no compound/solvent, Cordycepin-TP and HCV-796 (IC50 values used as a reference inhibition). Radioactive products were collected by applying the stopped reaction to DE-81 paper, air dried prior to washing with buffer comprising NaH2PO4 and sodium pyrophosphate to remove unincorporated ^32P-GTP in the NTP mix, and rinsed with dH2O followed by 100% ethanol. The DE-81 paper was air dried, squares cut out and placed in scintillation tubes for counting.

Assay [2] has as its system HCV Replicon. The assay is described as follows: HCV Replicon inhibition. In kind it is cell-based. The settings on record: Hepatitis C virus.

The EC50 is the concentration needed to bring the measured effect to its halfway point.

A value given as a limit tells only on which side of the number the result lay.

T1 sequence (P27958 2421-3011): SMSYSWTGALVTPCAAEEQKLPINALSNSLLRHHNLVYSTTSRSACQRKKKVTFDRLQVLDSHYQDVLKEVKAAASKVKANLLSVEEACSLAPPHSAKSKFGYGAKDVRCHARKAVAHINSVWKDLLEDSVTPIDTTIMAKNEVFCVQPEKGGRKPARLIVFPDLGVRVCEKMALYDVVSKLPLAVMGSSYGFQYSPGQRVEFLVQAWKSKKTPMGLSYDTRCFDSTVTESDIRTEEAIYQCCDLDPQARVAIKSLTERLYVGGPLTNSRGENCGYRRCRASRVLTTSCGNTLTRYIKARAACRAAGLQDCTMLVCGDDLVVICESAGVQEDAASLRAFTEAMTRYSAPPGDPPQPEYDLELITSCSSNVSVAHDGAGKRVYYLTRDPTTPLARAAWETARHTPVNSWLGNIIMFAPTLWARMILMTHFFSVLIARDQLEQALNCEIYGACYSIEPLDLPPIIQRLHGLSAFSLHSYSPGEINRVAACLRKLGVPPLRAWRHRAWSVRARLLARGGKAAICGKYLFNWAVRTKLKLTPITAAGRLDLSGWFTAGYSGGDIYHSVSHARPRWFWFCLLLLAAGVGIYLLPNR

As for `CS(=O)(=O)Nc1ccc2c(c1)S(=O)(=O)N=C(c1c(O)n3nccc3n(CCc3ccc(F)cc3)c1=O)N2` [Compound 232, N-(3-{4-[2-(4-Fluoro-phenyl)-ethyl]-7-hydroxy-5-oxo-4,5-dihydro-pyrazolo[1,5-a]pyrimidin-6-yl}-1,1-dioxo-1,4-dihydro-1lambda*6*-benzo[1,2,4]thiadiazin-7-yl)-methanesulfonamide], the EC50 in assay [1] was more than 50 µM; in assay [2] it was less than 0.1 µM.

For `CC(C)CCn1cc(C2=NS(=O)(=O)c3cc(NS(C)(=O)=O)ccc3N2)c2c(O)cccc21` [Compound 209], the 50% effective concentration (EC50) in assay [1] was 0.1 to 1 µM; in assay [2], more than 50 µM.

Consider `O=S1(=O)NC(c2c(O)c(Br)c3ccccc3c2O)=Nc2ccccc21` [Compound 105, 4-bromo-1,3-dihydroxy-2-(1,1-dioxo-2H-(1,2,4)-benzothiadiazin-3-yl)naphthalene], for which the EC50 in assay [1] and in assay [2] was 1 to 10 µM in each case.

Regarding `CC(C)CCn1c(=O)c(C2=NS(=O)(=O)c3cc(NS(C)(=O)=O)ccc3N2)c(O)n2ccnc12` [Compound 222, N-{3-[5-Hydroxy-8-(3-methyl-butyl)-7-oxo-7,8-dihydro-imidazo[1,2-a]pyrimidin-6-yl]-1,1-dioxo-1,4-dihydro-1lambda*6*-benzo[1,2,4]thiadiazin-7-yl}-methanesulfonamide], the EC50 in assay [1] is less than 0.1 µM; in assay [2], 0.1 to 1 µM.

With `CS(=O)(=O)Nc1ccc2c(c1)S(=O)(=O)N=C(c1c(O)n3nccc3n(Cc3ccc(F)cc3)c1=O)N2` [Compound 231, N-{3-[4-(4-Fluoro-benzyl)-7-hydroxy-5-oxo-4,5-dihydro-pyrazolo[1,5-a]pyrimidin-6-yl]-1,1-dioxo-1,4-dihydro-1lambda*6*-benzo[1,2,4]thiadiazin-7-yl}-methanesulfonamide], the EC50 in assay [1] is 10 to 50 µM; in assay [2] it was less than 0.1 µM.

Consider `CC(C)CCn1nc(C2=NS(=O)(=O)c3ccccc3N2)c2ccccc21` [Compound 202], for which the EC50 in assay [1] and in assay [2] was 10 to 50 µM throughout.

As to `CS(=O)(=O)Nc1ccc2c(c1)S(=O)(=O)N=C(c1cccc(C(F)(F)F)c1)N2` [Compound 224], the EC50 in assay [1] is 10 to 50 µM; in assay [2] it was less than 0.1 µM.

These data come from US20090257979A1, “Novel Inhibitors of Hepatitis C Virus Replication” (INTERMUNE, INC., priority 2008, published 2009).
